Test results published in ChEMBL document CHEMBL1201862, “PubChem BioAssay data set” (2004).
Values belong to the molecule of their own block, whether it stands above or below them. Active and inactive are the calls of the source.

Key:
Beta-galactosidase = Beta-galactosidase (Escherichia coli, UniProt Q8VNN2); assay: Dose response counterscreen for EBI2 assay utilizing the enzyme, b-galactosidase.; format: functional
cells [1] = format: functional, cell-based
cells [2] = format: functional, cell-based; remark: listed apart in the source
[3] = molecular target: 1-phosphatidylinositol 4,5-bisphosphate phosphodiesterase gamma-1 (Homo sapiens, UniProt P19174); assay: Counterscreen for inhibitors of phospholipase C isozymes (PLC-B3): Fluorescence-based biochemical high throughput dose response assay to identify inhibitors of phospholipase C isozymes (PLC-gamma1).
[4] = molecular target: 1-phosphatidylinositol 4,5-bisphosphate phosphodiesterase beta-3 (Homo sapiens, UniProt Q01970); assay: Fluorescence-based biochemical high throughput dose response assay to identify inhibitors of phospholipase C isozymes (PLC-B3).
Vero = assay: Vero cell toxicity, dose response, cytotoxicity control, plate reader, cherry-pick samples (AID 687020); format: functional, cell-based; settings: Chlorocebus sabaeus
[5] = molecular target: T1, Heat shock factor protein 1 (Mus musculus, UniProt P38532); assay: inhibition of MG132-induced HSE-luciferase signal, confirmation, cell-based, NIH3T3, luminescence, dose retest (AID 2382); format: functional;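 also: NIH3T3 fibroblasts with HSF1-driven luciferase reporter stressed by proteasome inhibitor MG132; luminescence from HSF1-driven luciferase expression after 8 hours of MG132 stress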
T1 sequence (P38532 whole entry): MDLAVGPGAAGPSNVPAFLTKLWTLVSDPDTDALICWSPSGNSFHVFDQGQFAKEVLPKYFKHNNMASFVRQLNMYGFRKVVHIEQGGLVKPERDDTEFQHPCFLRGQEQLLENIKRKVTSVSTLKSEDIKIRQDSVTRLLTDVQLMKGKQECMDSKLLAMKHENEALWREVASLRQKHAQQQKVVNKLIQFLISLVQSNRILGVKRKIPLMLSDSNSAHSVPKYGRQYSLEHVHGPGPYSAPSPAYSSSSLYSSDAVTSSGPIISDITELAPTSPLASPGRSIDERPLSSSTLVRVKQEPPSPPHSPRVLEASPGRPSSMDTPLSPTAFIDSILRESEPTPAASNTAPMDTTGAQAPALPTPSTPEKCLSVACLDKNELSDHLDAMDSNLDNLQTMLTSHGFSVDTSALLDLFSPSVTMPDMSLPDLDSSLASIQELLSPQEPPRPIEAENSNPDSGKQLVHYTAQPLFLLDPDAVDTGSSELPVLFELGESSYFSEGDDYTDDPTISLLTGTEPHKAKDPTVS

[6] = molecular target: Tyrosyl-DNA phosphodiesterase 2 (Homo sapiens, UniProt O95551); assay: human TDP2 enzyme inhibitors, dose response, biochemical, epi absorbance, IC50 (AID 743297)
[7] = molecular target: T2, Small ubiquitin-related modifier 1 (Homo sapiens, UniProt P63165); assay: inhibitors of SUMO1 peptide binding, dose response, biochemical, fluorescence polarization, uHTS hits (AID 624382); format: functional; settings: read-out: IC50_Mean
[8] = molecular target: T2, Small ubiquitin-related modifier 1; assay: inhibitors of SUMO1 partner interactions, dose response, biochemical, FRET (AID 624383); format: functional; settings: read-out: IC50_Mean
[9] = HEK293T cytotoxicity, dose response, cytotoxicity control for miR-122 modulator project, cell-based, inhibitor set, cherry-pick, set 2 (AID 720697); format: functional
[10] = miR-122 activators in hepatoma reporter cells, dose response, cell-based, Huh7 psiCHECK-miR122, Renilla luciferase, cherry-picked (AID 651956); format: functional;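 also: huh7 hepatoma cells stably carrying a psiCHECK-2 miR-122 sensor plasmid; renilla luciferase signal reporting endogenous miR-122 activity after 48 h compound exposure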
[11] = molecular target: T3, Rac GTPase-activating protein 1 (Homo sapiens, UniProt Q9H0H5); assay: MgcRacGAP GTPase-activating activity inhibitors, confirmation, biochemical, ADP Hunter fluorescence, primary and confirmatory (AID 624330); format: functional
T3 sequence (Q9H0H5 whole entry): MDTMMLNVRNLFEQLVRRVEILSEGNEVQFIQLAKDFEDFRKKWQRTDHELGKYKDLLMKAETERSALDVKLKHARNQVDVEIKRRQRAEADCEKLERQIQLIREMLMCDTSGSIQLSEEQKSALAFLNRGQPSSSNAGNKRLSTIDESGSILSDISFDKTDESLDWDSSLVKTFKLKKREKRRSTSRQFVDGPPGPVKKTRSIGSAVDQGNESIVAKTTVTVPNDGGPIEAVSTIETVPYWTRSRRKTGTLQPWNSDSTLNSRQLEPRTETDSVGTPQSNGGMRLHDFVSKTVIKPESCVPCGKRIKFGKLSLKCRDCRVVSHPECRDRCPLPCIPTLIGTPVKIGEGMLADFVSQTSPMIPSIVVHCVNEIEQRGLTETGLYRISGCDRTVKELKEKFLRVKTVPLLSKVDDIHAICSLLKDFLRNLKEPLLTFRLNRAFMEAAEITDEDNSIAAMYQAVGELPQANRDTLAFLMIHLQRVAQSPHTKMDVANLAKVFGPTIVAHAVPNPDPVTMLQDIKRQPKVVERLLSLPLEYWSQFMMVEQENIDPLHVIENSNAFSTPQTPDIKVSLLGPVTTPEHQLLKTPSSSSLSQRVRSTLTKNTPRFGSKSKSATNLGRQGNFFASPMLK

Paired box protein Pax-8 = Paired box protein Pax-8 (Homo sapiens, UniProt Q06710); assay: inhibitors of PAX8-driven TPO luciferase reporter, dose response, RMG-I cells, cherry-pick (AID 687027); format: functional, cell-based;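 also: luciferase reporter driven by Pax8 target thyroperoxidase promoter measured by SteadyGlo luminescence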
[12] = non-specific cell cytotoxicity, dose response, cytotoxicity control for PAX8 inhibitor project, plate reader, dry powder samples (AID 743021); format: functional, cell-based
[13] = A375 melanoma cell viability loss, dose response, counter-screen for MITF inhibitor project, CellTiter-Glo luminescence, dry powder, set 4 (AID 624364); format: functional, cell-based; settings: A-375;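 also: A375 melanoma cells are MITF independent so this is a counter screen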
[14] = A375 melanoma cell cytotoxicity, dose response, counter-screen for MITF inhibitor project, CellTiter-Glo luminescence, dry powder, set 2 (AID 624489); format: functional, cell-based; settings: A-375;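 also: actives are compounds lowering A375 viability meaning general cytotoxicity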
[15] = molecular target: T4, Histone-lysine N-methyltransferase NSD2 (Homo sapiens, UniProt O96028); format: biochemical
T4 sequence (O96028 whole entry): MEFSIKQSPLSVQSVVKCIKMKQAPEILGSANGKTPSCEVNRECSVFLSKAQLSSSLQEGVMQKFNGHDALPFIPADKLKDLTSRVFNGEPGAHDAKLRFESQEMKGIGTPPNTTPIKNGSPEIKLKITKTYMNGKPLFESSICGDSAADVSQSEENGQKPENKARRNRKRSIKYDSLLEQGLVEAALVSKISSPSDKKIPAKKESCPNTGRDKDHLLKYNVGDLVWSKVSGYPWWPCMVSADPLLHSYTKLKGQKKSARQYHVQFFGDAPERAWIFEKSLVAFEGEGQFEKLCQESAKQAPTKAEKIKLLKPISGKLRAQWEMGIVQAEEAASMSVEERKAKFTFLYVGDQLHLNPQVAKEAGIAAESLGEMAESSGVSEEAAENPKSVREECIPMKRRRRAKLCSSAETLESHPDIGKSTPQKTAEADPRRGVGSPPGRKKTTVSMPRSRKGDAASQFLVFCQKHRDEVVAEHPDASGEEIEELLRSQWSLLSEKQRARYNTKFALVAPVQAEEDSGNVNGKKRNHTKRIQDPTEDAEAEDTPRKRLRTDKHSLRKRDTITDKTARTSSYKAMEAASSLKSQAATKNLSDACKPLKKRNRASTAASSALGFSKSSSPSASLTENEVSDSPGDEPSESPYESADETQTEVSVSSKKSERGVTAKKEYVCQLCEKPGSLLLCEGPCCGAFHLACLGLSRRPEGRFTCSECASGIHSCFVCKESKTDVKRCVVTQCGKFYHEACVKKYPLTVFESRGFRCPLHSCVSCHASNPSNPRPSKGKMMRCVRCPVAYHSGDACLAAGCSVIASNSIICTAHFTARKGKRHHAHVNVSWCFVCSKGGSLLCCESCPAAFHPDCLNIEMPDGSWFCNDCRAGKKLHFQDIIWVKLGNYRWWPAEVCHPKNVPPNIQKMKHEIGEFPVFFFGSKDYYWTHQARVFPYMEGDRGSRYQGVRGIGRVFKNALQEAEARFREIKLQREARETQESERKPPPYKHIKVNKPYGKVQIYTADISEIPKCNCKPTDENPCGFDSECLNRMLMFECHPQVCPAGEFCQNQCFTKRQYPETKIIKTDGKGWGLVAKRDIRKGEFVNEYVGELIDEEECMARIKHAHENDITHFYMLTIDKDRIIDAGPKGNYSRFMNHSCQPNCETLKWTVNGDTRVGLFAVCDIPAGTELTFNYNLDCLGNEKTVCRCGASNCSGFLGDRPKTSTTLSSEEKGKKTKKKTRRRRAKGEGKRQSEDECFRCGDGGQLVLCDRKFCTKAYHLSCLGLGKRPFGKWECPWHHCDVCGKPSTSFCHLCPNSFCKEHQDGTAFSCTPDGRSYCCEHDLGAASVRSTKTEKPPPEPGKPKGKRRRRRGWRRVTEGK

[16] = molecular target: T5, Mannose-6-phosphate isomerase (Homo sapiens, UniProt P34949); assay: human PMI inhibitors, high substrate, primary screen, biochemical, fluorescence intensity, high mannose 6-phosphate (AID 1220)
T5 sequence (P34949 whole entry): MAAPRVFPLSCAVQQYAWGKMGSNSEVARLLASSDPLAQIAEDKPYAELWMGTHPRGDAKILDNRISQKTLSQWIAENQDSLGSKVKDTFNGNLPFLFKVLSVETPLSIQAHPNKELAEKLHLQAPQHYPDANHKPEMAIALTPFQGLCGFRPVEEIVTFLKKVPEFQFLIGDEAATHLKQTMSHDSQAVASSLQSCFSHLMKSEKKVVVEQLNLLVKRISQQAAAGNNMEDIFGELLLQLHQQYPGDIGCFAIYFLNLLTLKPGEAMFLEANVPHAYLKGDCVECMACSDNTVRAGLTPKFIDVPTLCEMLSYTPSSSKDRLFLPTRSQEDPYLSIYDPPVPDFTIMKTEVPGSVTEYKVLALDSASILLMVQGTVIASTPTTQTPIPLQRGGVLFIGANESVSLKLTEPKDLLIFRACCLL

Large T antigen = Large T antigen (Simian virus 40, UniProt P03070); format: functional, Betapolyomavirus macacae;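 also: Confirmatory-stage PubChem screen for compounds that inhibit SV40 T antigen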
[17] = HeLa cell cytotoxicity, dose response, cytotoxicity control for MgcRacGAP inhibitor project (AID 624300); format: functional
Cytochrome P450 3A4 = Cytochrome P450 3A4 (Homo sapiens, UniProt P08684);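 also: CYP3A4 tested as one member of a cytochrome P450 panel screen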
cells [18] = format: functional, cell-based; remark: listed apart in the source
Cytochrome P450 2D6 = Cytochrome P450 2D6 (Homo sapiens, UniProt P10635);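 also: CYP2D6 member of a cytochrome P450 panel assay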
[19] = molecular target: T6, Nuclear receptor subfamily 0 group B member 1 (Homo sapiens, UniProt P51843); format: functional, cell-based;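 also: HEK293T cells transfected with SF-1 and DAX-1 plus StAR promoter luciferase reporter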
T6 sequence (P51843 whole entry): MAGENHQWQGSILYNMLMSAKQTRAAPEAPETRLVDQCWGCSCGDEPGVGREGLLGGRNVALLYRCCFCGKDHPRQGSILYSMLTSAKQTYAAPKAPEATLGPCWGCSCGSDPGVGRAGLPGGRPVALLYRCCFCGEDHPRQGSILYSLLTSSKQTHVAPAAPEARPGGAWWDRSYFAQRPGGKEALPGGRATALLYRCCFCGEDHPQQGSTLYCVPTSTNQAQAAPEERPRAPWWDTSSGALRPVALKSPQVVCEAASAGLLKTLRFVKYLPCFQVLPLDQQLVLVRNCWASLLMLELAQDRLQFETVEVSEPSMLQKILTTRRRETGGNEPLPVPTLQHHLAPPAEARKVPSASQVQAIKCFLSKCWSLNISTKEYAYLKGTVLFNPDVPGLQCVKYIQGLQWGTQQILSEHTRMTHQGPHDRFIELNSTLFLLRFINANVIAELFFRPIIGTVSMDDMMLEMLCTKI

Cytochrome P450 2C9 = Cytochrome P450 2C9 (Homo sapiens, UniProt P11712)
Sequence of Cytochrome P450 2C9 (P11712 whole entry): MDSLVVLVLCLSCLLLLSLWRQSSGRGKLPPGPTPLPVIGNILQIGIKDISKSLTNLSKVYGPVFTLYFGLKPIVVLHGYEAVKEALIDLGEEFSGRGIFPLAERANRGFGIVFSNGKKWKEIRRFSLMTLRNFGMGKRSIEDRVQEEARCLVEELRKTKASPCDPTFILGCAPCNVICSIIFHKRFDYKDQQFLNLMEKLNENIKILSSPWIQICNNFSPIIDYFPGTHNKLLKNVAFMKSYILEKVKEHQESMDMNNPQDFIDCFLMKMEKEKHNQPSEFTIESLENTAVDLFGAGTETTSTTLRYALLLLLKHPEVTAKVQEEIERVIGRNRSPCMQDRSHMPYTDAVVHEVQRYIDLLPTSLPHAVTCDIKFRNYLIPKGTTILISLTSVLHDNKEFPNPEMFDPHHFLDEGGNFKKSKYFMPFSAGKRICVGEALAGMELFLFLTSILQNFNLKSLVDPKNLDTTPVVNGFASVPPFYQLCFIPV

Sequence of Beta-galactosidase (Q8VNN2 whole entry): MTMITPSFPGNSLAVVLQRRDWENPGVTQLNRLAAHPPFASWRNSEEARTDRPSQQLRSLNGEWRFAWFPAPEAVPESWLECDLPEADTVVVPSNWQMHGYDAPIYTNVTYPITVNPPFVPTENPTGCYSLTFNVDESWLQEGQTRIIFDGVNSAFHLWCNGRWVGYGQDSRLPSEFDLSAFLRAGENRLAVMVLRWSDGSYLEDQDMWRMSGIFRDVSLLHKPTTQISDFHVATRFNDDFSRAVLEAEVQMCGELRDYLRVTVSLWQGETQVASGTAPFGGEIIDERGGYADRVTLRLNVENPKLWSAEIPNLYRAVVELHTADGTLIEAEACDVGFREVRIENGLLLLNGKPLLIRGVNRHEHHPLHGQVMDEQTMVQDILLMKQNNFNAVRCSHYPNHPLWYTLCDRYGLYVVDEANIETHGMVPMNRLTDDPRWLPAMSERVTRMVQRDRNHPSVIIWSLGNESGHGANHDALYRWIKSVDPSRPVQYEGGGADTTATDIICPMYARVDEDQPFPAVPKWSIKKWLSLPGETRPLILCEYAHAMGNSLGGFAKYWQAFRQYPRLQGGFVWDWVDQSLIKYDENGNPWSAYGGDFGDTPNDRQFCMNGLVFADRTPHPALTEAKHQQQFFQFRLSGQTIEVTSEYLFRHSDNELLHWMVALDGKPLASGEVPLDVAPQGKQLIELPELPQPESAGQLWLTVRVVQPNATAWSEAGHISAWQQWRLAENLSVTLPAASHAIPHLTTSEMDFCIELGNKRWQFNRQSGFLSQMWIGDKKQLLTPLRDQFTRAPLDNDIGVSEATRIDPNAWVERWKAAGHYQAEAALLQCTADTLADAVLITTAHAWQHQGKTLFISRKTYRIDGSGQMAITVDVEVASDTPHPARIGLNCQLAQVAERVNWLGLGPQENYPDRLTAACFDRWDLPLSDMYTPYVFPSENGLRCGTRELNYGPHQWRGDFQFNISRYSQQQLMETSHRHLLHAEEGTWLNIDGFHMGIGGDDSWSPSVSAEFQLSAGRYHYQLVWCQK
Sequence of 1-phosphatidylinositol 4,5-bisphosphate phosphodiesterase gamma-1 (P19174 whole entry): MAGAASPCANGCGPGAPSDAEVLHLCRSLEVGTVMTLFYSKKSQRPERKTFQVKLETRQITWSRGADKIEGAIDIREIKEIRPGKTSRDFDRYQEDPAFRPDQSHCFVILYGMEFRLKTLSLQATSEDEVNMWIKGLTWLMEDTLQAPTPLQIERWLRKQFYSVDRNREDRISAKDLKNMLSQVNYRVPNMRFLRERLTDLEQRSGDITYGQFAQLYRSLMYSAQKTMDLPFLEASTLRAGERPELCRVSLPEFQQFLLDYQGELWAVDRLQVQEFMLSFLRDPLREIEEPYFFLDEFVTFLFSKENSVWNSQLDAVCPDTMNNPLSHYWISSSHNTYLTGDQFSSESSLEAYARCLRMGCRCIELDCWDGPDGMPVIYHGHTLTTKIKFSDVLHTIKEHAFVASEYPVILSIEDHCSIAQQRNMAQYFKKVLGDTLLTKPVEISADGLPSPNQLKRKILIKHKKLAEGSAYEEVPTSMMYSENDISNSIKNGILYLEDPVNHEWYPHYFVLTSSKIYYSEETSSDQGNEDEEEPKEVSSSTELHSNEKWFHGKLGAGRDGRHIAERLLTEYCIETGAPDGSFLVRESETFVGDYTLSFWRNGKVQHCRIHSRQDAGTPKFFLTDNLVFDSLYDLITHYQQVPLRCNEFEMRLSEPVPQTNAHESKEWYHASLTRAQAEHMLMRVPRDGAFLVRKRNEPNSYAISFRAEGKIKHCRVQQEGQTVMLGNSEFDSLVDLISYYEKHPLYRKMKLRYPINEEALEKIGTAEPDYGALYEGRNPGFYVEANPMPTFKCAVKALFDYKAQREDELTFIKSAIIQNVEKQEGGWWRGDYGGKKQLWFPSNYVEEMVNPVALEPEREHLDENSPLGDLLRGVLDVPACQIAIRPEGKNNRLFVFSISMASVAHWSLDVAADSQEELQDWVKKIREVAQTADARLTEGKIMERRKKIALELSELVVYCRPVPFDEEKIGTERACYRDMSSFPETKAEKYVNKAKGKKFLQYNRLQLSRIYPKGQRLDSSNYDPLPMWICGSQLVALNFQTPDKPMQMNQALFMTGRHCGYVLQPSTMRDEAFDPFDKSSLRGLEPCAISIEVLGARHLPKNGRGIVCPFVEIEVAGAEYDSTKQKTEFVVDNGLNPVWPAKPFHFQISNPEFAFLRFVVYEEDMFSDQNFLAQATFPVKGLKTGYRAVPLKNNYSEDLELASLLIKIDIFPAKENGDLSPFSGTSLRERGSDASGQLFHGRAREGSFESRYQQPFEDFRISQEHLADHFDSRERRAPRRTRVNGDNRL
T2 sequence (P63165 whole entry): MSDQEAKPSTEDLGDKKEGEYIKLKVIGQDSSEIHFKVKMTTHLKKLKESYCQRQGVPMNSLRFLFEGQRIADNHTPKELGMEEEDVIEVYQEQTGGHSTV
Sequence of 1-phosphatidylinositol 4,5-bisphosphate phosphodiesterase beta-3 (Q01970 whole entry): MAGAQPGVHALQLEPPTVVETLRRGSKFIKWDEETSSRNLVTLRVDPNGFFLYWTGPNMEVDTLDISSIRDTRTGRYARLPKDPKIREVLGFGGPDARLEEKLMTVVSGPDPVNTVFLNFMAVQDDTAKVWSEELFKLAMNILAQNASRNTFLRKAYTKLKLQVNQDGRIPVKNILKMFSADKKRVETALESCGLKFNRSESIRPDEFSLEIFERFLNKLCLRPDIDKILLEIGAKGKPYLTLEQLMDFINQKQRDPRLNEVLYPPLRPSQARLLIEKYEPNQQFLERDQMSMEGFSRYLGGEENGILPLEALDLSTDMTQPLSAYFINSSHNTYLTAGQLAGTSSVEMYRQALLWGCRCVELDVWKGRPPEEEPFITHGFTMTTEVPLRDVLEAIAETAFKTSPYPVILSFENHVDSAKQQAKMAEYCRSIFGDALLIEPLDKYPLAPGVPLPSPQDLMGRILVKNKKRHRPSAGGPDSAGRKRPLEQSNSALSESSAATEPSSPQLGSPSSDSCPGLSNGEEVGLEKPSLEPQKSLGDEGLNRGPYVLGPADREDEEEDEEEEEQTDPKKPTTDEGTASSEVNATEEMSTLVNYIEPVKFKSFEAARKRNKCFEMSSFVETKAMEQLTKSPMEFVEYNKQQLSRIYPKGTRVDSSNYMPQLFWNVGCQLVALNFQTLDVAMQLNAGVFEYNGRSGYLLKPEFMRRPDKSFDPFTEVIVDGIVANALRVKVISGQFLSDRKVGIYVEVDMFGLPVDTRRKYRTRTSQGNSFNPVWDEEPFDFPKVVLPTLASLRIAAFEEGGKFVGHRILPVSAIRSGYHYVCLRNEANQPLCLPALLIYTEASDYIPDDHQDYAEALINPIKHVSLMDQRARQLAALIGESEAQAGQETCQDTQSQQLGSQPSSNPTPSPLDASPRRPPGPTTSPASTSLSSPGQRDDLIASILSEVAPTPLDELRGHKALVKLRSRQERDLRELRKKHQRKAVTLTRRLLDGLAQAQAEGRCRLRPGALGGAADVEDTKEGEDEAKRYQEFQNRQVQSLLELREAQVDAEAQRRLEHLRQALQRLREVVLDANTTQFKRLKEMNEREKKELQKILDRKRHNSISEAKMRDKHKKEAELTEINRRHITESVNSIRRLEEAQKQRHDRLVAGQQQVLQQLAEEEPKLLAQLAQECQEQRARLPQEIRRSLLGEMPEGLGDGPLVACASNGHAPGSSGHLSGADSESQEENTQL
Sequence of Tyrosyl-DNA phosphodiesterase 2 (O95551 whole entry): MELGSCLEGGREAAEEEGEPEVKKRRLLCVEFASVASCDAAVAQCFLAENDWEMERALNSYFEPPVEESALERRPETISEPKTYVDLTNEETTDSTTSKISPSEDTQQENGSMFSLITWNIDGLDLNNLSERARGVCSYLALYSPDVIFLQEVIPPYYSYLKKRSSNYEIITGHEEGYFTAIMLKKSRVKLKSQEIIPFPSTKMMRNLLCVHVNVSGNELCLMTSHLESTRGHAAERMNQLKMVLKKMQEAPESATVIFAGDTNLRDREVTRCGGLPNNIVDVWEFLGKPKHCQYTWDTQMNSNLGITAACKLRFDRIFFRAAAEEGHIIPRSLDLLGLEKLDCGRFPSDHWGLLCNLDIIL
Sequence of Cytochrome P450 3A4 (P08684 whole entry): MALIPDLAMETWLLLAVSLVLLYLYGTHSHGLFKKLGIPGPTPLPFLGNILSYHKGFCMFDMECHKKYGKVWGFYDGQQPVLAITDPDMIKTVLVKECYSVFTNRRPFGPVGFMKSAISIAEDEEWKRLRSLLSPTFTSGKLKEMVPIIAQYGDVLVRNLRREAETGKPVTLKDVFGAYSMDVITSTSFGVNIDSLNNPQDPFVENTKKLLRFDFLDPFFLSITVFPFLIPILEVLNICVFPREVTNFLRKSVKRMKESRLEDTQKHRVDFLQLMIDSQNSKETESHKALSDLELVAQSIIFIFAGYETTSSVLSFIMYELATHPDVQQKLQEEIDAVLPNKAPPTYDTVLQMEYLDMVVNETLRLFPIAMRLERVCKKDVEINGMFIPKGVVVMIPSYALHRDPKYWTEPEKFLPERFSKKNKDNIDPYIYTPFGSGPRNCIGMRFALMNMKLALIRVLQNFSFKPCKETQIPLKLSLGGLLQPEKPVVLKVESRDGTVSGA

IC50 (Beta-galactosidase): > 80 µM (inactive)
Compound: CCOC(=O)N1CCN(C(=O)c2cc3cc(Cl)ccc3[nH]2)CC1

Compound: COc1ccc(OCC(=O)N2CCc3ccccc3C2)cc1
EC50 (cells [1]): > 29.9 µM (inactive)
IC50 (cells [2]): > 29.9 µM (inactive)

IC50 (Beta-galactosidase): > 80 µM (inactive)
Compound: CCN1CCN(C(=O)/C=C/c2ccc(OC)cc2)CC1

IC50 [3]: 15.5 µM (inactive)
IC50 [4]: > 123 µM (inactive)
Compound: COc1ccc(CS(=O)(=O)c2nnc[nH]2)cc1

Compound: CCOC(=O)c1cc(S(=O)(=O)N2CCc3ccccc32)cn1C
AC50 (Vero): 17.9 µM (active)
EC50 [5]: > 195 µM (not active)

IC50 [3]: > 122 µM (inactive)
IC50 [4]: > 122 µM (inactive)
Compound: COc1cc(NS(=O)(=O)c2ccc(NC(=O)CN3C(=O)c4ccccc4C3=O)cc2)nc(OC)n1

Compound: COc1ccc(C(=O)NCCNc2nc3c(C)cccc3cc2C#N)cc1OC
AC50 (Vero): 25.7 µM (active)

Compound: CCC(CO)Oc1cc(NC(=O)c2cccc(OC)c2)c2ncn(C(C)C)c2c1 (centres undefined)
IC50 [6]: 36.6 µM (inactive)
IC50 [7]: > 66.6 µM (inactive)
IC50 [8]: 12.7 µM (active)

Compound: CNc1nc(NCCOc2ccccc2)c2sccc2n1
AC50 [9]: 4.2 µM (active)
AC50 [10]: 38.3 µM (active)

Compound: CC1NC(C)c2c(ccc3ccccc23)O1 (centres undefined)
EC50 (cells [1]): > 29.9 µM (inactive)
IC50 [11]: 114 µM (active)
IC50 (cells [2]): > 29.9 µM (inactive)

Compound: CCNC(=O)C[C@@H]1CC[C@@H]2[C@H](COc3ccc(NC(=O)Nc4cccc(Cl)c4)cc3C(=O)N2C)O1
AC50 [9]: < 0.195 µM (active)
AC50 [10]: 4.02 µM (active)

Compound: COC(=O)C1=C(C)N(Cc2ccc(C(F)(F)F)cc2)C(NCc2ccccc2)=NC1c1cccc(F)c1 (centres undefined)
AC50 (Paired box protein Pax-8): 26.8 µM (active)
AC50 [12]: 23.4 µM (active)

Compound: C=CCNC1=C(N2CCSCC2)C(=O)c2ccccc2C1=O
AC50 [13]: 24.3 µM (active)
AC50 [14]: 8.56 µM (active)

IC50 [11]: 52.1 µM (active)
AC50 [15]: 7.86 µM (active)
IC50 [16]: 28.9 µM (active)
IC50 (Large T antigen): 23.1 µM (active)
Compound: Oc1ccc(/C=N/Nc2cc(N3CCOCC3)nc(N3CCOCC3)n2)cc1O
CC50 [17]: 100 µM (active)

Compound: CC(=O)NC1=C(c2ccc(Cl)cc2)C(=O)c2ccccc2C1=O
AC50 [13]: 12.4 µM (active)
AC50 [14]: 9.22 µM (active)

Compound: O=c1cc(-c2ccccc2)oc2cc(O)cc(O)c12 [CHRYSIN]
AC50 (Cytochrome P450 3A4): 3.16 µM (inconclusive)
IC50 (cells [18]): > 67.6 µM (inactive)
AC50 (Cytochrome P450 2D6): 12.6 µM (inconclusive)
IC50 [19]: > 67.6 µM (inactive)
AC50 (Cytochrome P450 2C9): 5.01 µM (inconclusive)

Compound: O=C1Cc2c([nH]c3ccc(Br)cc23)-c2ccccc2N1 [KENPAULLONE]
IC50 (cells [18]): > 67.5 µM (inactive)
IC50 [19]: > 0.834 µM (active)
